Patent publication US10059688B2, “Protein tyrosine kinase modulators and methods of use” (BETTA PHARMACEUTICALS CO., LTD., priority 2013, dated 2018)

How the values were obtained:
[1] = target: ALK (h) (Homo sapiens (Human), UniProt Q9UM73); assay: Kinase assay, single dose inhibition (Millipore, 33P-ATP filter binding); assay type: biochemical; settings: 0.1 μM test compound, 10 μM ATP; remaining activity relative to DMSO control = 100%
Method: (§1) Assay conditions included 10 μM ATP and 100 nM test compounds.
(§2) All reactions are initiated by the addition of the MgATP mix. After incubation for 40 minutes at room temperature, the reaction is stopped by the addition of 3% phosphoric acid solution. 10 μL of the reaction is then spotted onto a P30 filtermat and washed three times for 5 minutes in 75 mM phosphoric acid and once in methanol prior to drying and scintillation counting. This assay is performed by Millipore. The experiment is carried out in duplicate. The value for the control sample (DMSO) was set to 100%, and the values for the compound-treated samples were expressed as activity relative to the control sample.

[2] = target: EGFR (h) (Homo sapiens (Human), UniProt P00533); assay: as above; assay type: biochemical; settings: 0.1 μM test compound, 10 μM ATP; remaining activity relative to DMSO control = 100%
[3] = target: EGFR (L858R) (h) (Homo sapiens (Human), UniProt P00533, L858R); assay: as above; assay type: biochemical; settings: 0.1 μM test compound, 10 μM ATP; remaining activity relative to DMSO control = 100%
Method: as §1, §2

[4] = target: EGFR (T790M) (h) (Homo sapiens (Human), UniProt P00533, T790M); assay: as above; assay type: biochemical; settings: 0.1 μM test compound, 10 μM ATP; remaining activity relative to DMSO control = 100%
Method: as §1, §2

[5] = target: EGFR (T790M, L858R) (h) (Homo sapiens (Human), UniProt P00533, L858R/T790M); assay: as above; assay type: biochemical; settings: 0.1 μM test compound, 10 μM ATP; remaining activity relative to DMSO control = 100%
Method: as §1, §2

[6] = system: H1975 (EGFR L858R/T790M) NSCLC cells; assay: Cell proliferation assay (MTS cell viability); assay type: cell-based; settings: H1975 cells, 3 days of exposure, MTS
[7] = system: HCC827 (EGFR Del) NSCLC cells; assay: Cell proliferation assay (MTS cell viability); assay type: cell-based; settings: HCC827 cells, 3 days of exposure, MTS
Method: (§3) Effects of test compounds on in vitro proliferation were measured by MTS cell viability assay.
(§4) Prepare test compounds in each well with a final medium volume of 200 μl;
Incubate for 3 days of exposure;
(§5) Prepare reagents following the instructions in the Cell Proliferation Assay kit (Promega);
(§6) Change to serum-free medium with a final volume of 100 l/well. Prepare a set of wells with medium only for background subtraction;
(§7) Add 20 μl MTS solution containing PMS to each well (final concentration of MTS will be 0.33 mg/ml);
(§8) Incubate 1 to 4 hours at 37° C. in a humidified, 5% CO2 atmosphere.
(§9) Record absorbance at 490 nm using VICTOR™ X5 plate reader (PerkinElmer).
(§10) All experimental points were set up in three wells and all experiments were repeated at least three times.

[8] = system: A549 (EGFR WT) NSCLC cells; assay: Cell proliferation assay (MTS cell viability); assay type: cell-based; settings: A549 cells, 3 days of exposure, MTS
Method: as §3
A549 cells were maintained in Ham's F12K medium (Gibco) supplemented with 10% FBS, 100 units/mL penicillin, 100 units/mL streptomycin, and 2 mM glutamine.
as §4
Incubate for 3 days of exposure;
as §5, §6, §7, §8, §9, §10

[9] = system: A431 (EGFR WT) cells; assay: Cell proliferation assay (MTS cell viability); assay type: cell-based; settings: 3 days of exposure
Method: as §3
A431 cells were maintained in DMEM (Gibco) supplemented with 10% FBS, 100 units/mL penicillin, 100 units/mL streptomycin, and 2 mM glutamine.
as §4
Incubate for 3 days of exposure;
as §5, §6, §7, §8, §9, §10

[10] = target: ALK (Homo sapiens (Human), UniProt Q9UM73); assay: Kinase assay (IC50), fluorescence peptide assay; assay type: biochemical; settings: 10 pt curve, 1 μM top concentration, Km ATP
Chain of ALK (Q9UM73 19-1620): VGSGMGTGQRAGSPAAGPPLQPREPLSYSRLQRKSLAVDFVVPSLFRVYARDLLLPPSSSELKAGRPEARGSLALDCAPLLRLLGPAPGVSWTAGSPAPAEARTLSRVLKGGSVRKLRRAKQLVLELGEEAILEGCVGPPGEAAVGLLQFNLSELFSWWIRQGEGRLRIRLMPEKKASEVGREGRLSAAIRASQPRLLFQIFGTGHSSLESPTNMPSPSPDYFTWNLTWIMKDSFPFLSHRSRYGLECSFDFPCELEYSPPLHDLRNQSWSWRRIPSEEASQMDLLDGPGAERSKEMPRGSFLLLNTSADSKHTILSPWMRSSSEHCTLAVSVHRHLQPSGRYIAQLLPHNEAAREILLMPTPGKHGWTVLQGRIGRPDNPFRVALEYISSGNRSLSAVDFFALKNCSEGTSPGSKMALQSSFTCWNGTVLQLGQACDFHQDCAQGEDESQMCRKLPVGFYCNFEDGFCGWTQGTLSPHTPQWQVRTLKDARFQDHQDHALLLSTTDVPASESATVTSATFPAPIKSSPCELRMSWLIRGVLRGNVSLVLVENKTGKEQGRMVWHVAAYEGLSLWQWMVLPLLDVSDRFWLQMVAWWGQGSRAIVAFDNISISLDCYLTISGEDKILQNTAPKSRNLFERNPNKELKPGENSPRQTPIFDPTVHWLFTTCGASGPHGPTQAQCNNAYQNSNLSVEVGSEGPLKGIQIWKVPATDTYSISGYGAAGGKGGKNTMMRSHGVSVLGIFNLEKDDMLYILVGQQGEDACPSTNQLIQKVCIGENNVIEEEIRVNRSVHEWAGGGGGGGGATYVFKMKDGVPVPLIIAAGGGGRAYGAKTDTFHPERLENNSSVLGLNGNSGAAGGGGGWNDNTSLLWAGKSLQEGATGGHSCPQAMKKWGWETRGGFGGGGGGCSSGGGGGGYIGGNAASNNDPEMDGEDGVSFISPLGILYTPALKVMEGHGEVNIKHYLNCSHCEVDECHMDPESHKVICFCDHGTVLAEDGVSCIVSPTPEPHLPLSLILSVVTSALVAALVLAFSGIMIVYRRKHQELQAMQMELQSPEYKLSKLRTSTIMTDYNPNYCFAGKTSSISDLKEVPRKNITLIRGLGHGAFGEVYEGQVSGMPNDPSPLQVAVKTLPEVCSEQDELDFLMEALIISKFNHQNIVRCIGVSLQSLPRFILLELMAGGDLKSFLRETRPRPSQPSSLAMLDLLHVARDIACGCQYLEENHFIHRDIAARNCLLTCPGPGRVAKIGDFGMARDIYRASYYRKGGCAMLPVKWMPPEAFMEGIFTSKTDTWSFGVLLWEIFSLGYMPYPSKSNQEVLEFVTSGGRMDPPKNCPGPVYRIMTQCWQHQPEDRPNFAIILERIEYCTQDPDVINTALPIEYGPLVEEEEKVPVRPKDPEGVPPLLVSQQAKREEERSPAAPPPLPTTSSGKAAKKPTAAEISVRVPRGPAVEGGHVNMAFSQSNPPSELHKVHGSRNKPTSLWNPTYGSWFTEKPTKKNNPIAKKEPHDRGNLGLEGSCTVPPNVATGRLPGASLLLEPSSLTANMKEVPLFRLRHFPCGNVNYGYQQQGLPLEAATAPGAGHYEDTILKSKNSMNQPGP
Method: 2.5 μL—4× Test Compound or 100 nL 100× plus 2.4 μL kinase buffer;
5 μL—2× Peptide/Kinase Mixture;
5 μL—Development Reagent Solution;
60-minute Development Reaction incubation at room temperature;
Read on fluorescence plate reader and analyze the data.

[11] = system: activated and resistant T790M forms of EGFR; EGFR WT; assay: In vitro cellular assays, statements across cell lines; assay type: cell-based; settings: result in words
Method: as §3

Chain of ALK (h) (Q9UM73 19-1620): as above

Compound: COc1cc(N2CCC(N(C)C)CC2)ccc1Nc1ncc(Cl)c(Nc2ccccc2C(=O)C(N)=O)n1 [Example 4, 2-(2-(5-chloro-2-(4-(4-(dimethylamino)piperidin-1-yl)-2-methoxyphenylamino)pyrimidin-4-ylamino)phenyl)-2-oxoacetamide]
- Activity (control) % ALK (h) [1]: 8%
- Activity (control) % EGFR (h) [2]: 65%
- Activity (control) % EGFR (L858R) (h) [3]: 8%
- Activity (control) % EGFR (T790M) (h) [4]: 4%
- Activity (control) % EGFR (T790M, L858R) (h) [5]: 2%
- IC50 ([6]; Homo sapiens, NCI-H1975, 72 h): > 3000 nM
- IC50 ([7]; Homo sapiens, 72 h): 2630 nM
- IC50 ([8]; Homo sapiens, 72 h): > 3000 nM

Compound: COc1cc(N2CCC(N(C)C)CC2)ccc1Nc1ncc(Cl)c(Nc2ccccc2C(=O)C(=O)N(C)C)n1 [Example 17, 2-(2-((5-chloro-2-((4-(4-(dimethylamino)piperidin-1-yl)-2-methoxyphenyl)amino)pyrimidin-4-yl)amino)phenyl)-N,N-dimethyl-2-oxoacetamide]
- IC50 ([6]; Homo sapiens, NCI-H1975, 72 h): 860 nM
- IC50 ([7]; Homo sapiens, 72 h): 1230 nM
- IC50 ([8]; Homo sapiens, 72 h): > 3000 nM
- IC50 ([9]; Homo sapiens, A-431, 72 h): 260 nM

Compound: C=CC(=O)Nc1cccc(Nc2ncc(Cl)c(Nc3ccccc3C(=O)C(=O)N(C)C)n2)c1 [Example 40, N-(3-(5-chloro-4-(2-(2-(dimethylamino)-2-oxoacetyl)phenylamino)pyrimidin-2-ylamino)phenyl)acrylamide]
- Activity (control) % ALK (h) [1]: 28%
- Activity (control) % EGFR (h) [2]: 106%
- Activity (control) % EGFR (L858R) (h) [3]: 103%
- Activity (control) % EGFR (T790M) (h) [4]: 79%
- Activity (control) % EGFR (T790M, L858R) (h) [5]: 24%
- IC50 ([6]; Homo sapiens, NCI-H1975, 72 h): 10 nM
- IC50 ([7]; Homo sapiens, 72 h): 70 nM
- IC50 ([8]; Homo sapiens, 72 h): 640 nM

Compound: COc1cc(N2CCN(C(C)=O)CC2)ccc1Nc1ncc(Cl)c(Nc2ccccc2C(=O)C(=O)N(C)C)n1 [Example 53, 2-(2-(2-(4-(4-acetylpiperazin-1-yl)-2-methoxyphenylamino)-5-chloropyrimidin-4-ylamino)phenyl)-N,N-dimethyl-2-oxoacetamide]
- Activity (control) % EGFR (h) [2]: 109%
- Activity (control) % EGFR (L858R) (h) [3]: 60%
- Activity (control) % EGFR (T790M) (h) [4]: 21%
- Activity (control) % EGFR (T790M, L858R) (h) [5]: 4%
- IC50 ([6]; Homo sapiens, NCI-H1975, 72 h): 210 nM
- IC50 ([7]; Homo sapiens, 72 h): 540 nM
- IC50 ([8]; Homo sapiens, 72 h): > 3000 nM
- IC50 ([9]; Homo sapiens, A-431, 72 h): 50 nM

Compound: COc1cc(Nc2ncc(Cl)c(Nc3ccccc3C(=O)C(=O)N(C)C)n2)ccc1N1CCN(C)CC1 [Example 61, 2-(2-(5-chloro-2-(3-methoxy-4-(4-methylpiperazin-1-yl)phenylamino)pyrimidin-4-ylamino)phenyl)-N,N-dimethyl-2-oxoacetamide]
- Activity (control) % ALK (h) [1]: 5%
- Activity (control) % EGFR (h) [2]: 101%
- Activity (control) % EGFR (L858R) (h) [3]: 70%
- Activity (control) % EGFR (T790M) (h) [4]: 54%
- Activity (control) % EGFR (T790M, L858R) (h) [5]: 13%
- IC50 [10]: 12.2 nM

Compound: C=CC(=O)Nc1cc(Nc2ncc(Cl)c(Nc3ccccc3C(=O)C(=O)NC)n2)ccc1OC [Example 64, N-(5-(5-chloro-4-(2-(2-(methylamino)-2-oxoacetyl)phenylamino)pyrimidin-2-ylamino)-2-methoxyphenyl)acrylamide]
- Activity (control) % ALK (h) [1]: 47%
- Activity (control) % EGFR (h) [2]: 106%
- Activity (control) % EGFR (L858R) (h) [3]: 100%
- Activity (control) % EGFR (T790M) (h) [4]: 79%
- Activity (control) % EGFR (T790M, L858R) (h) [5]: 39%
- IC50 ([6]; Homo sapiens, NCI-H1975, 72 h): 90 nM
- IC50 ([7]; Homo sapiens, 72 h): 450 nM
- IC50 ([8]; Homo sapiens, 72 h): > 3000 nM

Compound: C=CC(=O)Nc1cc(Nc2ncc(Cl)c(Nc3ccccc3C(=O)C(=O)N(C)C)n2)ccc1OC [Example 65, N-(5-(5-chloro-4-(2-(2-(dimethylamino)-2-oxoacetyl)phenylamino)pyrimidin-2-ylamino)-2-methoxyphenyl)acrylamide]
- Activity (control) % ALK (h) [1]: 19%
- Activity (control) % EGFR (h) [2]: 118%
- Activity (control) % EGFR (L858R) (h) [3]: 102%
- Activity (control) % EGFR (T790M) (h) [4]: 80%
- Activity (control) % EGFR (T790M, L858R) (h) [5]: 25%
- IC50 ([6]; Homo sapiens, NCI-H1975, 72 h): 20 nM
- IC50 ([7]; Homo sapiens, 72 h): 120 nM
- IC50 ([8]; Homo sapiens, 72 h): > 3000 nM
- activity against both activated and resistant T790M forms of EGFR in vitro cellular assays [11]: potent activity

Compound: C=CC(=O)Nc1cc(Nc2ncc(Cl)c(Nc3ccccc3C(=O)C(=O)N(C)C)n2)c(OC)cc1F [Example 66, N-(5-(5-chloro-4-(2-(2-(dimethylamino)-2-oxoacetyl)phenylamino)pyrimidin-2-ylamino)-2-fluoro-4-methoxyphenyl)acrylamide]
- Activity (control) % ALK (h) [1]: 35%
- Activity (control) % EGFR (h) [2]: 107%
- Activity (control) % EGFR (L858R) (h) [3]: 104%
- Activity (control) % EGFR (T790M) (h) [4]: 66%
- Activity (control) % EGFR (T790M, L858R) (h) [5]: 24%
- IC50 ([6]; Homo sapiens, NCI-H1975, 72 h): 50 nM
- IC50 ([7]; Homo sapiens, 72 h): 120 nM
- IC50 ([8]; Homo sapiens, 72 h): > 3000 nM
- activity against both activated and resistant T790M forms of EGFR in vitro cellular assays [11]: potent activity

Compound: C=C(CN1CCOCC1)C(=O)Nc1cccc(Nc2ncc(Cl)c(Nc3ccccc3C(=O)C(=O)N(C)C)n2)c1 [Example 112, N-(3-(5-chloro-4-(2-(2-(dimethylamino)-2-oxoacetyl)phenylamino)pyrimidin-2-ylamino)phenyl)-2-(morpholinomethyl)acrylamide]
- Activity (control) % ALK (h) [1]: 21%
- Activity (control) % EGFR (h) [2]: 85%
- Activity (control) % EGFR (L858R) (h) [3]: 66%
- Activity (control) % EGFR (T790M) (h) [4]: 14%
- Activity (control) % EGFR (T790M, L858R) (h) [5]: 1%
- IC50 ([6]; Homo sapiens, NCI-H1975, 72 h): 10 nM
- IC50 ([7]; Homo sapiens, 72 h): 30 nM
- IC50 ([8]; Homo sapiens, 72 h): 40 nM
- IC50 ([9]; Homo sapiens, A-431, 72 h): 100 nM
- activity against both activated and resistant T790M forms of EGFR in vitro cellular assays [11]: potent activity

Compound: C=C(CN(C)CCN(C)C)C(=O)Nc1ccc(OC)c(Nc2ncc(Cl)c(Nc3ccccc3C(=O)C(=O)N(C)C)n2)c1 [Example 126, N-(3-(5-chloro-4-(2-(2-(dimethylamino)-2-oxoactyl)phenylamino)pyrimidin-2-ylamino)-4-methoxyphenyl)-2-(((2-(dimethylamino)ethyl)(methyl)amino)methyl)acrylamide]
- Activity (control) % ALK (h) [1]: 19%
- Activity (control) % EGFR (h) [2]: 93%
- Activity (control) % EGFR (L858R) (h) [3]: 47%
- Activity (control) % EGFR (T790M) (h) [4]: 5%
- Activity (control) % EGFR (T790M, L858R) (h) [5]: 2%
- IC50 ([6]; Homo sapiens, NCI-H1975, 72 h): 10 nM
- IC50 ([7]; Homo sapiens, 72 h): 20 nM
- IC50 ([9]; Homo sapiens, A-431, 72 h): 210 nM

Compound: C=CC(=O)Nc1ccc(OC)c(Nc2ncc(Cl)c(Nc3ccccc3C(=O)C(=O)N(CC)CC)n2)c1 [Example 131, N-(3-(5-chloro-4-(2-(2-(diethylamino)-2-oxoacetyl)phenylamino)pyrimidin-2-ylamino)-4-methoxyphenyl)acrylamide]
- Activity (control) % ALK (h) [1]: 9%
- Activity (control) % EGFR (h) [2]: 104%
- Activity (control) % EGFR (L858R) (h) [3]: 104%
- Activity (control) % EGFR (T790M) (h) [4]: 82%
- Activity (control) % EGFR (T790M, L858R) (h) [5]: 27%
- IC50 ([6]; Homo sapiens, NCI-H1975, 72 h): 10 nM
- IC50 ([7]; Homo sapiens, 72 h): 50 nM
- IC50 ([9]; Homo sapiens, A-431, 72 h): 750 nM

Compound: N-(5-(5-chloro-4-(2-(2-(dimethylamino)-2-oxoactyl)phenylamino)pyrimidin-2-ylamino)-4-methoxy-2-(4-methylpiperazin-1-yl)phenyl)acrylamide [Example 74]
- Activity (control) % ALK (h) [1]: 9%
- Activity (control) % EGFR (h) [2]: 110%
- Activity (control) % EGFR (T790M) (h) [4]: 62%
- IC50 [6]: 50 nM
- IC50 [7]: 30 nM
- IC50 [8]: 620 nM
- IC50 [9]: 50 nM
- activity against both activated and resistant T790M forms of EGFR in vitro cellular assays [11]: potent activity
